Results taken from US20090118337A1, “Methods and compositions for treating inflammation” (priority 2005, published 2009).
Entries after “also recorded” stand apart in the source; their conditions may differ.

Assays:
[1] = tested on: NF-κB; experiment: NF-κB luciferase reporter gene assay in 16HBEo- cell pairs stimulated with PAO1; assay type: cell-based, human; details: PAO1 stimulation, FIG. 2
Method: Cell lines: 16HBE-S and 16HBE-AS cells were grown in EMEM supplemented with 10% fetal bovine serum, 2 mM L-glutamine, 100 units/100 μg per ml of penicillin-streptomycin and 400 μg/ml G-418 as previously described.
Reporter Gene Assays: Cells were seeded in 24-well tissue culture dishes 24 hours before transfection. 20 ug luciferase plasmid and 10 ug Renilla plasmid were mixed into 2 mls serum-free DMEM. NFκB luciferase and AP-1 plasmids were purchased from BD Biosciences CLONTECH. pRLTK was used as an internal control for transfection efficiency.
300 ul Lipofectamine PLUS reagent (Invitrogen) was mixed with 200 ul serum-free DMEM. The PLUS reagent and plasmid were incubated for 15 minutes at room temperature. 100 ul Lipofectamine was added to 2.4 ml serum-free DMEM.
The lipofectamine and the DNA-PLUS solutions were mixed and incubated for an additional 15 minutes. The transfection mix was diluted into 20 mls of serum-free DMEM. 250 ul of diluted transfection mix was added to each well and the cells were incubated for 3 hours. Cells were lysed and the lysates assayed for luciferase activity.
A final stock concentration of 10 mM troglitazone (Cayman Chemical) was dissolved in DMSO and diluted to various concentrations. DMSO was added to the cells as a control. […]

[2] = tested on: amiloride-sensitive sodium conductance; details: cells grown with 20 μM I172; cited from earlier work
[3] = tested on: well differentiated airway epithelial cells; details: 20 μM I172; cited from earlier work
[4] = tested on: RhoA; experiment: Activated RhoA in cells grown with I172; assay type: cell-based, human; details: cells grown with I172, day 3
Method: (§1) At three or four weeks, on day 0, cells are switched to submerged culture (liquid-liquid interface, LLI) and treated with either DMSO 1:1000 (vehicle control, normal cells, Sigma, St. Louis, Mo.), or 20 μM CFTRinh-172 (kindly provided by Alan Verkman) prepared in DMSO, and diluted from a 1:1000 stock. Drugs are added to both the basolateral (1 or 2 ml volume, according to filter size) and the apical side (0.35 or 1.5 ml) and media replenished every 24H. […] At day 3, cells were committed to inflammatory stimulation with TNF IL-1 or PAO1 as indicated below. Cells committed to PAO1 stimulation were switched to serum-free media 24H prior PAO1 stimulation, kept in serum-free media until the end of the experiment, and media replenished every 12H during that time. Serum-free media contained 1:1 DMEM-Ham's F-12, pH. 7.2, L-glutamine 2.5 mM, Penicillin/Streptomycin 100 units/100 μg per ml, gentamicin 50 μg/ml, amphotericin B 1.25 μg/ml from Gibco, Invitrogen Corporation, Carlsbad, Calif.; fluconazole 2 μg/ml (DIFLUCON®, Pfizer); transferrin 5 μg/ml, hydrocortisone 5 μM, insulin 5 μg/ml, endothelial cell growth supplement 20 μg/mil, and bovine serum albumin 1 mg/ml from Sigma, St. Louis, Mo. Serum-containing media had the same antibiotics present as the serum-free media. Antibiotics were not present during PAO1 stimulation.

[5] = tested on: Smad3; experiment: Smad3 expression in cells grown with I172; assay type: cell-based, human; details: cells grown with I172, day 3
Method: as §1

[6] = tested on: IL-8; experiment: IL-8 secretion of cells grown with I172; assay type: cell-based, human; details: cells grown with I172, day 3
Method: as §1

[7] = tested on: interaction between PPARγ and other transcription factors; experiment: Interaction of PPARγ with other transcription factors in well differentiated airway epithelial cells treated with I172; assay type: cell-based, human; details: I172 20 uM for 72 hr; particularly following stimulation with TNFα/IL1β
Method: Transcription Factor Arrays: TranSignal TF-TF Interaction Array I (Panomics) was processed according to the manufacturer's instructions. Nuclear extracts from 16HBEo-sense and antisense cells were incubated with biotin-labeled double-stranded oligonucleotides. PPARγ was immunoprecipitated with 3 μg of monoclonal antibody and Dynabeads (Dynal), which are magnetic protein G beads. Free cis-elements and non-specific binding proteins were washed away. PPARγ associated biotin-labeled probes were eluted from the beads and hybridized to TranSignal Protein/DNA array membranes. The arrays were blocked and incubated with Streptavidin-HRP and developed with a chemiluminescent detection system.
In order to test the impact of CFTR deficiency on the interaction of PPAR-γ with other transcription factors, we treated well differentiated airway epithelial cells grown at the ALI with I172 (20 uM), an inhibitor of CFTR activity, continuously for 72 hr prior to preparation of nuclear extracts or stimulation. […] This model allows one to compare, in well-differentiated airway epithelial cells that have identical genetic endowment at all loci, the effect of CFTR inhibition on various cellular processes. […] During the course of these experiments, cells from the airways of a patient with CF of genotype ΔF508/ΔF508, obtained at transplant, became available and were cultured at the air-liquid interface.

[8] = high dose, CF; cited from earlier work
[9] = tested on: CF mice challenged with M57-15 P. aeruginosa; experiment: Acute Pseudomonas challenge model, CF mice (BAL inflammatory response); assay type: in vivo; details: pretreated by gavage, BAL 24 hours after P. aeruginosa challenge
Method: Pioglitazone inhibits the inflammatory response in CF mice to acute administration of Pseudomonas: Mice pretreated with pioglitazone or vehicle by gavage, then challenged with prior to challenge with M57-15 P. aeruginosa, underwent BAL for inflammatory response outcome measures 24 hours after challenge. Cell counts, cytokine values, and body weight were recorded. […] CF mice treated with vehicle had marked increase in inflammatory response compared to WT mice treated with vehicle, as previously reported for untreated mice (FIGS. 12-14).
In order to test the therapeutic potential of PPARγ agonists in CF animals, we utilized the acute pseudomonas challenge model in CF and non-CF mice, because it was the closest mimic of the acute pseudomonas challenge applied to the epithelial cells in culture. We administered pioglitazone by gavage because this is one of the two PPARγ agonists available for human use. […] However, the dose used in these studies was high compared to conventional human doses, on a weight basis, and the drug was administered prior to challenge, a luxury that may not be available for many patients with CF.

## Cc1c(C)c2c(c(C)c1O)CCC(C)(COc1ccc(CC3SC(=O)NC3=O)cc1)O2 (single isomer, unassigned; (+)) [troglitazone, (+)-5[[4-[(3,4-dihydro-6-hydroxy-2,5,7,8-tetramethyl-2H-1-benzopyran-2-yl)methoxy]phenyl]methyl]-2,4thiazolidinedione]
[1]
  activation of NF-κB driven luciferase activity: significantly inhibited

## O=C(O)c1ccc(/C=C2\SC(=S)N(c3cccc(C(F)(F)F)c3)C2=O)cc1 [I172]
[2]
  amiloride-sensitive sodium conductance: do not display increased amiloride-sensitive sodium conductance
[3]
  cell morphology by electron microscopy: no decrease in cell viability or change in cell morphology
  cell viability: no decrease in cell viability; also recorded: without compromising cell viability
[4]
  activated RhoA: increased activated RhoA
[5]
  Smad3 expression: decreased Smad3 expression
[6]
  basal and stimulated secretion of IL-8: increased basal and stimulated secretion of IL-8
[7]
  interaction between PPARγ and other transcription factors: less interaction

## CC(C)Cc1ccc(C(C)C(=O)O)cc1 (centres unmarked) [ibuprofen]
[8]
  incidence of gastrointestinal hemorrhage: increased incidence
  rate of decline of pulmonary function: slowed

## CCc1ccc(CCOc2ccc(CC3SC(=O)NC3=O)cc2)nc1 (centres unmarked) [pioglitazone, 5-[4-[2-(5-ethylpyridin-2-yl)ethoxyl]benzyl]thiazolidine-2,4-dione]
[9]
  inflammatory response (BAL cell counts, cytokine values, body weight) in CF mice: significant reduction of the inflammatory response; also recorded: In two of the three experiments, pioglitazone limited the inflammatory response; also recorded: significant reduction in inflammatory response
